This is an account of results in US20080312255A1 (ASTRAZENECA AB, priority 2007, published 2008).

Molecules are shown by their SMILES.

Chain of S. aureus GyrB ATPase (P0AES4 whole entry): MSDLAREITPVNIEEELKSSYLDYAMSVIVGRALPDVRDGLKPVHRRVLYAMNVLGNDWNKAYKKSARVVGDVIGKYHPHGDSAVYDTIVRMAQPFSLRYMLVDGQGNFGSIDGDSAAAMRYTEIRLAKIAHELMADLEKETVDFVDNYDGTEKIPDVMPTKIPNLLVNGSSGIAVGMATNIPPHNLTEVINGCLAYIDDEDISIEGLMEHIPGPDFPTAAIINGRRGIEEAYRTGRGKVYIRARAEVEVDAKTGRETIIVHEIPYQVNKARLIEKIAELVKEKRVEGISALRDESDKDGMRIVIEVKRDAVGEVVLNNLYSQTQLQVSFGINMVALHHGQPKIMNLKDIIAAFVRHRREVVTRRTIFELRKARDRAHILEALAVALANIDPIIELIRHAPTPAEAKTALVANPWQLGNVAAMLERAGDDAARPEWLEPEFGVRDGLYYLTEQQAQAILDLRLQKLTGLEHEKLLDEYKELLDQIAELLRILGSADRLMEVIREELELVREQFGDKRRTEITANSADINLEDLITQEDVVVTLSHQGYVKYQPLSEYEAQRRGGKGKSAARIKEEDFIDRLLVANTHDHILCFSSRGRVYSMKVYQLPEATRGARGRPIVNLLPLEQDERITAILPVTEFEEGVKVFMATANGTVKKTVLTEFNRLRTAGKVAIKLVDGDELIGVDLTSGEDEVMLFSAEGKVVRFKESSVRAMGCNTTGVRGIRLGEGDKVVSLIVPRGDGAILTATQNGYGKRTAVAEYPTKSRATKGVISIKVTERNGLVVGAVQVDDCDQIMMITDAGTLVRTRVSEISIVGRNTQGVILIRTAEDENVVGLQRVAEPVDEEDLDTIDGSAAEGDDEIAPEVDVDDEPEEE
Chain of S. aureus GyrB ATPase (P0A0K8 whole entry): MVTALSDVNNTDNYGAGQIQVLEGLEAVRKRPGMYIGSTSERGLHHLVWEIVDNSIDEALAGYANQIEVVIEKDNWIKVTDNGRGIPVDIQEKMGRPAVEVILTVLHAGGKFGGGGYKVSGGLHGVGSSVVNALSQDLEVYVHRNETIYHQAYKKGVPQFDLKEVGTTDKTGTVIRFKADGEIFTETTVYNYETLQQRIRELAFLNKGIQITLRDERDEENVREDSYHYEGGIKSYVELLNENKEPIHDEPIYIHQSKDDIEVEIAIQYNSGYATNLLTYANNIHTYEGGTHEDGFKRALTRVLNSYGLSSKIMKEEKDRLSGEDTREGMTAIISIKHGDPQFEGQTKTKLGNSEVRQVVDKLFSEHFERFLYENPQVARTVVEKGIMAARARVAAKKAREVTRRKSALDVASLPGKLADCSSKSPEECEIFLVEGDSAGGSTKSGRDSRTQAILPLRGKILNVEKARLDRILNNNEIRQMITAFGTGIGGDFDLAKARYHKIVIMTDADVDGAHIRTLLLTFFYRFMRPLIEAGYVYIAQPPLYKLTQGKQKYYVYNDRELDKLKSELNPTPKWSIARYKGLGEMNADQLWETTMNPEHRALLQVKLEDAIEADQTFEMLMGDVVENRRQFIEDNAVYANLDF

The target in this assay is S. aureus GyrB ATPase (Staphylococcus aureus, UniProt P0A0K8). Put plainly: S. aureus GyrB ATPase inhibition (ammonium molybdate/malachite green phosphate detection). The format is biochemical. The conditions noted are these: compound concentration of 1 μM. The essentials:
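E. coli GyrA and S. aureus GyrB (250 pM each) with sheared salmon sperm DNA and 250 μM ATP, pH 7.5 Hepes buffer. Released phosphate detected by malachite green/ammonium molybdate at 650 nm; percent inhibition at 1 μM compound unless noted, normalized to 2% DMSO (0%) and EDTA (100%) controls.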
On to `COC(=O)c1sc(N2CC[C@@H](NC(=O)c3[nH]c(C)c(Cl)c3Cl)[C@@H](OC)C2)nc1-c1cccc(OC)n1` [Example 94, methyl 2-((3S,4R)-4-(3,4-dichloro-5-methyl-1H-pyrrole-2-carboxamido)-3-methoxypiperidin-1-yl)-4-(6-methoxypyridin-2-yl)thiazole-5-carboxylate], for which the inhibition at 1 µM is 106%.

As to `CCOC(=O)c1sc(N2CC[C@@H](NC(=O)c3[nH]c(C)c(Cl)c3Cl)[C@@H](OC)C2)nc1-c1cnc(C)cn1` [Example 96, ethyl 2-((3S,4R)-4-(3,4-dichloro-5-methyl-1H-pyrrole-2-carboxamido)-3-methoxypiperidin-1-yl)-4-(5-methylpyrazin-2-yl)thiazole-5-carboxylate], the inhibition at 1 µM is 90.2%.

Regarding `CCOC(=O)c1sc(N2CC[C@@H](NC(=O)c3[nH]c(C)c(Cl)c3Cl)[C@@H](OC)C2)nc1-c1ncccc1F` [Example 97, ethyl 2-((3S,4R)-4-(3,4-dichloro-5-methyl-1H-pyrrole-2-carboxamido)-3-methoxypiperidin-1-yl)-4-(3-fluoropyridin-2-yl)thiazole-5-carboxylate], the inhibition at 1 µM was 91.5%.

For `CCOC(=O)c1sc(N2CC[C@@H](NC(=O)c3[nH]c(C)c(Cl)c3Cl)[C@@H](F)C2)nc1-c1cc(OC)ccn1` [Example 98, Ethyl 2-((3S,4R)-4-(3,4-dichloro-5-methyl-1H-pyrrole-2-carboxamido)-3-fluoropiperidin-1-yl)-4-(4-methoxypyridin-2-yl)thiazole-5-carboxylate], the inhibition at 1 µM is 84.4%.

In the case of `COC(=O)c1sc(N2CC[C@@H](NC(=O)c3[nH]c(C)c(Cl)c3Cl)[C@@H](F)C2)nc1-c1cn(C)nn1` [Example 99, methyl 2-((3S,4R)-4-(3,4-dichloro-5-methyl-1H-pyrrole-2-carboxamido)-3-fluoropiperidin-1-yl)-4-(1-methyl-1H-1,2,3-triazol-4-yl)thiazole-5-carboxylate], the inhibition at 1 µM came out at 102%.

Take `COC(=O)c1sc(N2CC[C@@H](NC(=O)c3[nH]c(C)c(Cl)c3Cl)[C@@H](F)C2)nc1-c1cccc(OC)n1` [Example 100, methyl 2-((3S,4R)-4-(3,4-dichloro-5-methyl-1H-pyrrole-2-carboxamido)-3-fluoropiperidin-1-yl)-4-(6-methoxypyridin-2-yl)thiazole-5-carboxylate]: the inhibition at 1 µM worked out at 112%.

For the compound `CCOC(=O)c1sc(N2CC[C@@H](NC(=O)c3[nH]c(C)c(Cl)c3Cl)[C@@H](F)C2)nc1-c1ncccc1F` [Example 102, ethyl 2-((3S,4R)-4-(3,4-dichloro-5-methyl-1H-pyrrole-2-carboxamido)-3-fluoropiperidin-1-yl)-4-(3-fluoropyridin-2-yl)thiazole-5-carboxylate], the inhibition at 1 µM was 81.4%.

As for `COC(=O)c1sc(N2CC[C@@H](NC(=O)c3[nH]c(C)c(Cl)c3C#N)[C@@H](OC)C2)nc1-c1cn(C)nn1` [Example 103, methyl 2-((3S,4R)-4-(4-chloro-3-cyano-5-methyl-1H-pyrrole-2-carboxamido)-3-methoxypiperidin-1-yl)-4-(1-methyl-1H-1,2,3-triazol-4-yl)thiazole-5-carboxylate], the inhibition at 1 µM stood at 85.7%.

Regarding `COC(=O)c1sc(N2CC[C@@H](NC(=O)c3[nH]c(C)c(Cl)c3C#N)[C@@H](OC)C2)nc1-c1ncnn1C` [Example 104, methyl 2-((3S,4R)-4-(4-chloro-3-cyano-5-methyl-1H-pyrrole-2-carboxamido)-3-methoxypiperidin-1-yl)-4-(1-methyl-1H-1,2,4-triazol-5-yl)thiazole-5-carboxylate], the inhibition at 1 µM was found to be 86.4%.

In the case of `CCOC(=O)c1sc(N2CC[C@@H](NC(=O)c3[nH]c(C)c(Cl)c3C#N)[C@@H](OC)C2)nc1-c1ncccn1` [Example 105, ethyl 2-((3S,4R)-4-(4-chloro-3-cyano-5-methyl-1H-pyrrole-2-carboxamido)-3-methoxypiperidin-1-yl)-4-(pyrimidin-2-yl)thiazole-5-carboxylate], the inhibition at 1 µM came to 103%.

For the compound `CCOC(=O)c1sc(N2CC[C@@H](NC(=O)c3[nH]c(C)c(Cl)c3C#N)[C@@H](OC)C2)nc1-c1ncccc1F` [Example 106, ethyl 2-((3S,4R)-4-(4-chloro-3-cyano-5-methyl-1H-pyrrole-2-carboxamido)-3-methoxypiperidin-1-yl)-4-(3-fluoropyridin-2-yl)thiazole-5-carboxylate], the inhibition at 1 µM was found to be 101%.

Turning to `CCOC(=O)c1sc(N2CC[C@@H](NC(=O)c3[nH]c(C)c(Cl)c3C#N)[C@@H](OC)C2)nc1-c1cn(C)cn1` [Example 108, ethyl 2-((3S,4R)-4-(4-chloro-3-cyano-5-methyl-1H-pyrrole-2-carboxamido)-3-methoxypiperidin-1-yl)-4-(1-methyl-1H-imidazol-4-yl)thiazole-5-carboxylate], the inhibition at 1 µM turned out to be 86.6%.

In the case of `CO[C@H]1CN(c2nc(-c3cn(C)nn3)c(C(=O)O)s2)CC[C@H]1NC(=O)c1[nH]c(C)c(Cl)c1Cl` [Example 109, 2-((3S,4R)-4-(3,4-dichloro-5-methyl-1H-pyrrole-2-carboxamido)-3-methoxypiperidin-1-yl)-4-(1-methyl-1H-1,2,3-triazol-4-yl)thiazole-5-carboxylic acid], the inhibition at 1 µM stood at 101%.

As for `COc1cccc(-c2nc(N3CC[C@@H](NC(=O)c4[nH]c(C)c(Cl)c4Cl)[C@@H](OC)C3)sc2C(=O)O)n1` [Example 111, 2-((3S,4R)-4-(3,4-dichloro-5-methyl-1H-pyrrole-2-carboxamido)-3-methoxypiperidin-1-yl)-4-(6-methoxypyridin-2-yl)thiazole-5-carboxylic acid], the inhibition at 1 µM is 105%.

For the compound `COc1ccnc(-c2nc(N3CC[C@@H](NC(=O)c4[nH]c(C)c(Cl)c4Cl)[C@@H](OC)C3)sc2C(=O)O)c1` [Example 112, 2-((3S,4R)-4-(3,4-dichloro-5-methyl-1H-pyrrole-2-carboxamido)-3-methoxypiperidin-1-yl)-4-(4-methoxypyridin-2-yl)thiazole-5-carboxylic acid], the inhibition at 1 µM is 81.1%.

As for `CO[C@H]1CN(c2nc(-c3cnc(C)cn3)c(C(=O)O)s2)CC[C@H]1NC(=O)c1[nH]c(C)c(Cl)c1Cl` [Example 113, 2-((3S,4R)-4-(3,4-dichloro-5-methyl-1H-pyrrole-2-carboxamido)-3-methoxypiperidin-1-yl)-4-(5-methylpyrazin-2-yl)thiazole-5-carboxylic acid], the inhibition at 1 µM was 92.9%.

For the compound `CO[C@H]1CN(c2nc(-c3ncccc3F)c(C(=O)O)s2)CC[C@H]1NC(=O)c1[nH]c(C)c(Cl)c1Cl` [Example 114, 2-((3S,4R)-4-(3,4-dichloro-5-methyl-1H-pyrrole-2-carboxamido)-3-methoxypiperidin-1-yl)-4-(3-fluoropyridin-2-yl)thiazole-5-carboxylic acid], the inhibition at 1 µM came to 82.9%.

Turning to `Cc1[nH]c(C(=O)N[C@@H]2CCN(c3nc(-c4cn(C)nn4)c(C(=O)O)s3)C[C@@H]2F)c(Cl)c1Cl` [Example 116, 2-((3S,4R)-4-(3,4-dichloro-5-methyl-1H-pyrrole-2-carboxamido)-3-fluoropiperidin-1-yl)-4-(1-methyl-1H-1,2,3-triazol-4-yl)thiazole-5-carboxylic acid], the inhibition at 1 µM came to 101%.

As for `COc1cccc(-c2nc(N3CC[C@@H](NC(=O)c4[nH]c(C)c(Cl)c4Cl)[C@@H](F)C3)sc2C(=O)O)n1` [Example 117, 2-((3S,4R)-4-(3,4-dichloro-5-methyl-1H-pyrrole-2-carboxamido)-3-fluoropiperidin-1-yl)-4-(6-methoxypyridin-2-yl)thiazole-5-carboxylic acid], the inhibition at 1 µM is 108%.

For `Cc1cnc(-c2nc(N3CC[C@@H](NC(=O)c4[nH]c(C)c(Cl)c4Cl)[C@@H](F)C3)sc2C(=O)O)cn1` [Example 118, 2-((3S,4R)-4-(3,4-dichloro-5-methyl-1H-pyrrole-2-carboxamido)-3-fluoropiperidin-1-yl)-4-(5-methylpyrazin-2-yl)thiazole-5-carboxylic acid], the inhibition at 1 µM is 92.1%.

Take `Cc1[nH]c(C(=O)N[C@@H]2CCN(c3nc(-c4ncccc4F)c(C(=O)O)s3)C[C@@H]2F)c(Cl)c1Cl` [Example 119, 2-((3S,4R)-4-(3,4-dichloro-5-methyl-1H-pyrrole-2-carboxamido)-3-fluoropiperidin-1-yl)-4-(3-fluoropyridin-2-yl)thiazole-5-carboxylic acid]: the inhibition at 1 µM is 79.4%.

As for `CO[C@H]1CN(c2nc(-c3cn(C)nn3)c(C(=O)O)s2)CC[C@H]1NC(=O)c1[nH]c(C)c(Cl)c1C#N` [Example 120, 2-((3S,4R)-4-(4-chloro-3-cyano-5-methyl-1H-pyrrole-2-carboxamido)-3-methoxypiperidin-1-yl)-4-(1-methyl-1H-1,2,3-triazol-4-yl)thiazole-5-carboxylic acid], the inhibition at 1 µM turned out to be 104%.

For the compound `CO[C@H]1CN(c2nc(-c3ncnn3C)c(C(=O)O)s2)CC[C@H]1NC(=O)c1[nH]c(C)c(Cl)c1C#N` [Example 121, 2-((3S,4R)-4-(4-chloro-3-cyano-5-methyl-1H-pyrrole-2-carboxamido)-3-methoxypiperidin-1-yl)-4-(1-methyl-1H-1,2,4-triazol-5-yl)thiazole-5-carboxylic acid], the inhibition at 1 µM amounted to 103%.

Consider `CO[C@H]1CN(c2nc(-c3ncccn3)c(C(=O)O)s2)CC[C@H]1NC(=O)c1[nH]c(C)c(Cl)c1C#N` [Example 122, 2-((3S,4R)-4-(4-chloro-3-cyano-5-methyl-1H-pyrrole-2-carboxamido)-3-methoxypiperidin-1-yl)-4-(pyrimidin-2-yl)thiazole-5-carboxylic acid], for which the inhibition at 1 µM was determined as 103%.

`CO[C@H]1CN(c2nc(-c3ncccc3F)c(C(=O)O)s2)CC[C@H]1NC(=O)c1[nH]c(C)c(Cl)c1C#N` [Example 123, 2-((3S,4R)-4-(4-chloro-3-cyano-5-methyl-1H-pyrrole-2-carboxamido)-3-methoxypiperidin-1-yl)-4-(3-fluoropyridin-2-yl)thiazole-5-carboxylic acid]: the inhibition at 1 µM amounted to 104%.
